The subject of series [1] is K562 human leukemia-derived cell lines. The series is described as follows: K562 human leukemia cell-proliferation inhibition test. It counts as cell-based. Particulars: Homo sapiens, K562, 72 h, K562 cells, 72 hours, viable cells counted with trypan blue; read-out: IC50. The procedure: K562 Human Leukemia Cell-Proliferation Inhibition Test
A cell proliferation inhibition test using K562 cells was performed. The activity in the presence of a test substance was compared to the activity in the presence of green tea polyphenol (GTP). The materials used in the test are as follows.
Cells: K562 human leukemia-derived cell lines (DS Pharma Biomedical Co., Ltd.)
Control Substance: Green Tea Polyphenols, abbreviation: GTP (LKT Laboratories, Inc.)
Culture solution: 10% equine serum-supplemented RPMI1640 medium
A test substance and a control substance were used by dissolving each of them in DMSO. To a solution (0.99 mL) containing K562 cells in a cell concentration of 20,000 cells/mL, a test substance solution or a control substance solution (0.01 mL) was added and the cells were cultured. Seventy two hours later, a part of the cells was stained with trypan blue and viable cells were counted by a counting chamber.
In Table 2, “IC50” denotes the sample concentration inhibiting 50% of cell proliferation

A further series deals with Hep G2 (liver cancer). In words: Evaluation of anticancer action, cell proliferation inhibition (WST-8), Hep G2. Particulars: Homo sapiens, HepG2, Hep G2, about 72 hours. It counts as cell-based. From the text:
The cell proliferation inhibitory effects of a test substance (Compound 3) on various types of cancer cells were examined.
1. Measuring Reagent and Analysis Software
WST-8 Kit (Cat. No. 260-96165 or 260-96162; manufactured by Kishida Chemical Co., Ltd.) for counting cell number
Software for graph making and measurement of GI50 value: XLfit 5.2 (ID Business Solutions Ltd.)
2. Cells and Culture Conditions
Five types of cells and medium (the following Table) were used. The cells were obtained from the Research Resource Bank of the Human Sciences Foundation.
On the day when a sample was to be added, the sample was weighed and a medium for each type of cells was added so as to be 500 μg/mL. Sonication was performed while warming at 37° C. for 60 minutes to be dissolved. Then, filtration was performed by a 0.22 m-filter. The 500 μg/mL-solution was diluted with the medium for each type of cells to prepare 200 μg/mL, 60 μg/mL, 20 μg/mL, 6 μg/mL, 2 μg/mL, 0.6 μg/mL and 0.2 μg/mL solutions, which were specified as two-fold concentration test solutions (the final concentrations of the test substance were 250 µg/mL, 100 μg/mL, 30 μg/mL, 10 μg/mL, 3 μg/mL, 1 μg/mL, 0.3 μg/mL, […], respectively). […]
(8) Absorbance values at 450 nm and 650 nm were measured to calculate O.D. 450 and O.D. 650. […]
ODdrug-exposed wells: absorbance of a well containing a sample […]
For orientation: Tetrazolium assays rely on reduction of a dye to a coloured formazan, in cell work by metabolically active cells.

For the next series, the system named is RBL-2H3 cells. The series is described as follows: Degranulation suppression test of RBL-2H3 cells (β-hexosaminidase release, IgE stimulation). It counts as cell-based, Rat. As to conditions: for Degranulation ratio: relative to untreated control, n = 4. The procedure: 1. Degranulation Suppression Test of RBL-2H3 Cells
As to Compound 3, the granule release (degranulation) suppression action on RBL-2H3 cell by IgE stimulation, which is a cell model for an allergic reaction, was examined.
A test substance (50 mg) was dissolved by adding 1 mL of 50 vol % ethanol to the test substance to obtain a concentration of 50 mg/mL. The solution thus obtained was diluted with a buffer solution. […] The concentrations were all indicated as the concentrations in cell supernatants.
β-Hexosaminidase abundantly present in granules of RBL-2H3 cells was used as the index of degranulation caused by IgE stimulation, and p-nitrophenol produced by the reaction with a substrate was measured by colorimetric assay. The activity values of β-hexosaminidase present within cells and released in the culture supernatant were determined to obtain the release rate of β-hexosaminidase, and then, a degranulation rate relative to an untreated control was obtained. Based on this, degranulation inhibitory action was evaluated.
Main test conditions and outline of the operation will be described below.
Cell: Rat basophil leukemic cell, RBL-2H3 [Human Sciences Foundation]
Stimulation of degranulation: Anti-DNP-IgE antibody, DNP labeled albumin [Sigma-Aldrich Corporation]
Degranulation Index: 3-Hexosaminidase activity
Measurement apparatus: Microplate reader, SpectraMax M2c • [Molecular Devices Corporation]
In this test, an action to suppress granule release (degranulation) in mast cells caused by an IgE antigen stimulation is evaluated. Thus, the smaller the degranulation ratio is, the stronger the effect is […]

Values after ≈ are worked out from the molar mass of the structure shown.

Results on two compounds are retold here after patent US9682931B2, “Aryloyl(oxy or amino)pentafluorosulfanylbenzene compound, pharmaceutically acceptable salt thereof, and prodrugs thereof” (UBE INDUSTRIES, LTD., priority 2013, dated 2017).

A word on the IC50: it is the concentration needed to halve the response being measured. Broadly, the GI50 is the concentration giving 50% growth inhibition. A high value points to less potent growth inhibition.

In the case of `O=C(Nc1ccc(S(F)(F)(F)(F)F)cc1)c1cc(O)c(O)c(O)c1` [Compound 3, 4-(3,4,5-trihydroxybenzoylamino)pentafluorosulfanylbenzene], in series [1], the 50% inhibitory concentration (IC50) came out at 0.81 µg/mL (≈ 2.18 µM). For the same compound, in the series on Hep G2 (liver cancer), it took 9.8 µg/mL (≈ 26.4 µM) to inhibit growth by half (GI50). For the same compound, the “cytotoxicity (visual)” value in the series on RBL-2H3 cells (RBL-2H3 cells, any concentration) is on record as “not visually confirmed”. In addition, the Degranulation ratio with RBL-2H3 cells (sample 1 μg/mL) amounted to 91%; in the series on RBL-2H3 cells (sample 10 μg/mL), 85%; with RBL-2H3 cells (sample 25 μg/mL), 73%; in the series with RBL-2H3 cells (sample 50 μg/mL in cell supernatant) it was 35%; with RBL-2H3 cells (sample 100 μg/mL in cell supernatant) it was 19%.
For the compound `O=C(Oc1ccc(S(F)(F)(F)(F)F)cc1)c1cc(O)c(O)c(O)c1` [Compound 7, 4-(3,4,5-trihydroxybenzoyloxy)pentafluorosulfanylbenzene], in series [1], the IC50 was determined as 1.9 µg/mL (≈ 5.1 µM).
